Source: patent US11986540B2, “Compositions including pafolacianine for the identification of malignant lesions” (ON TARGET LABORATORIES, LLC., priority 2022, dated 2024)
Where two headings read alike, the source gives them in different places.

Test: Phase 1a pharmacokinetics in healthy volunteers, single IV administration
Assay type: in vivo, human
Conditions: for AUC(0-t) / Tmax / AUC(0-inf) / clearance / Cmax / half-life / Vd: human, plasma, intravenous
Source text: A total of 73 potentially eligible healthy volunteers gave written acknowledgement of informed consent to participate in a Phase 1a study to assess the safety and pharmacokinetics of pafolacianine versus placebo. Fifty-four were found suitable for participation, of which 30 were enrolled in the study. Twenty-four subjects were white, 1 subject was Black/African-American, 1 was Asian, 1 was mixed race and 3 were of another race.
The pharmacokinetic (PK) analysis population was defined as all subjects who were randomized and received study treatment. Of note, the drug infusion was stopped prematurely in 1 subject, and interrupted in another subject. The pharmacokinetics of pafolacianine following single IV administration of 0.025, 0.05, 0.1, or 0.2 mg/kg was determined using non-compartmental analysis; the key PK parameters are summarized in Table 7.

[1] = dose escalated 8-fold (0.025 to 0.2 mg/kg)
[2] = 0.025 mg/kg, in 20 ml 0.9% NaCl, 10- and 60-min infusion
[3] = 0.025 mg/kg, in 220 ml 5% dextrose, 60-min infusion
[4] = 0.05 mg/kg, in 220 ml 5% dextrose, 60-min infusion
[5] = 0.1 mg/kg, in 220 ml 5% dextrose, 60-min infusion
[6] = 0.2 mg/kg, in 220 ml 5% dextrose, 60-min infusion
[7] = 0.2 mg/kg, with pre-treatment of antihistamine (clemastine)

CC1(C)C(=CC=C2CCCC(C=CC3=[N+](CCCCS(=O)(=O)[O-])c4ccc(S(=O)(=O)O)cc4C3(C)C)=C2Oc2ccc(CC(NC(=O)c3ccc(NCc4cnc5nc(N)[nH]c(=O)c5n4)cc3)C(=O)O)cc2)N(CCCCS(=O)(=O)O)c2ccc(S(=O)(=O)O)cc21 (stereo not drawn) [pafolacianine]
increase in AUClast [1]: ~22 fold
increase in Cmax [1]: ~12 fold
AUC(0-t) [2]: 0.0634 µg·h/mL
Tmax [2]: 0.75 h
AUC(0-inf) (0.025 mg/kg, in 20 ml 0.9% NaCl, 10- and 60-min infusion, read-out: AUC0-inf): 0.0664 µg·h/mL
clearance (0.025 mg/kg, in 20 ml 0.9% NaCl, 10- and 60-min infusion, read-out: CL (converted)): 443 mL/min
Cmax (0.025 mg/kg, in 20 ml 0.9% NaCl, 10- and 60-min infusion, read-out: Cmax): 0.0933 µg/mL
half-life (0.025 mg/kg, in 20 ml 0.9% NaCl, 10- and 60-min infusion, read-out: T1/2 (converted)): 0.416 h
Vd (0.025 mg/kg, in 20 ml 0.9% NaCl, 10- and 60-min infusion, read-out: Vz): 15.9 L
AUC(0-t) [3]: 0.0616 µg·h/mL
Tmax [3]: 0.95 h
AUC(0-inf) (0.025 mg/kg, in 220 ml 5% dextrose, 60-min infusion, read-out: AUC0-inf): 0.0636 µg·h/mL
clearance (0.025 mg/kg, in 220 ml 5% dextrose, 60-min infusion, read-out: CL (converted)): 477 mL/min
Cmax (0.025 mg/kg, in 220 ml 5% dextrose, 60-min infusion, read-out: Cmax): 0.0591 µg/mL
half-life (0.025 mg/kg, in 220 ml 5% dextrose, 60-min infusion, read-out: T1/2 (converted)): 0.438 h
Vd (0.025 mg/kg, in 220 ml 5% dextrose, 60-min infusion, read-out: Vz): 17.1 L
AUC(0-inf) (0.025 mg/kg, read-out: area under the plasma concentration-time curve to infinity (AUCinf)): 0.0636 ± 0.0126 µg·h/mL
half-life (0.025 mg/kg, read-out: elimination half-life (converted)): 0.44 ± 0.23 h
Cmax (0.025 mg/kg, read-out: mean maximum plasma concentration (Cmax)): 0.0591 ± 0.00594 µg/mL
clearance (0.025 mg/kg, read-out: mean plasma clearance (converted)): 477 mL/min
AUC(0-t) [4]: 0.25 µg·h/mL
Tmax [4]: 1.03 h
AUC(0-inf) (0.05 mg/kg, in 220 ml 5% dextrose, 60-min infusion, read-out: AUC0-inf): 0.258 µg·h/mL
clearance (0.05 mg/kg, in 220 ml 5% dextrose, 60-min infusion, read-out: CL (converted)): 245 mL/min
Cmax (0.05 mg/kg, in 220 ml 5% dextrose, 60-min infusion, read-out: Cmax): 0.184 µg/mL
half-life (0.05 mg/kg, in 220 ml 5% dextrose, 60-min infusion, read-out: T1/2 (converted)): 0.931 h
Vd (0.05 mg/kg, in 220 ml 5% dextrose, 60-min infusion, read-out: Vz): 19.2 L
AUC(0-t) [5]: 0.785 µg·h/mL
Tmax [5]: 1.02 h
AUC(0-inf) (0.1 mg/kg, in 220 ml 5% dextrose, 60-min infusion, read-out: AUC0-inf): 0.799 µg·h/mL
clearance (0.1 mg/kg, in 220 ml 5% dextrose, 60-min infusion, read-out: CL (converted)): 161 mL/min
Cmax (0.1 mg/kg, in 220 ml 5% dextrose, 60-min infusion, read-out: Cmax): 0.45 µg/mL
half-life (0.1 mg/kg, in 220 ml 5% dextrose, 60-min infusion, read-out: T1/2 (converted)): 1.64 h
Vd (0.1 mg/kg, in 220 ml 5% dextrose, 60-min infusion, read-out: Vz): 22.2 L
AUC(0-t) [6]: 1.31 µg·h/mL
Tmax [6]: 1.09 h
AUC(0-inf) (0.2 mg/kg, in 220 ml 5% dextrose, 60-min infusion, read-out: AUC0-inf): 1.34 µg·h/mL
clearance (0.2 mg/kg, in 220 ml 5% dextrose, 60-min infusion, read-out: CL (converted)): 167 mL/min
Cmax (0.2 mg/kg, in 220 ml 5% dextrose, 60-min infusion, read-out: Cmax): 0.64 µg/mL
half-life (0.2 mg/kg, in 220 ml 5% dextrose, 60-min infusion, read-out: T1/2 (converted)): 2.66 h
Vd (0.2 mg/kg, in 220 ml 5% dextrose, 60-min infusion, read-out: Vz): 38.8 L
AUC(0-t) [7]: 1.4 µg·h/mL
Tmax [7]: 1 h
AUC(0-inf) (0.2 mg/kg, with pre-treatment of antihistamine (clemastine), read-out: AUC0-inf): 1.43 µg·h/mL
clearance (0.2 mg/kg, with pre-treatment of antihistamine (clemastine), read-out: CL (converted)): 170 mL/min
Cmax (0.2 mg/kg, with pre-treatment of antihistamine (clemastine), read-out: Cmax): 0.765 µg/mL
half-life (0.2 mg/kg, with pre-treatment of antihistamine (clemastine), read-out: T1/2 (converted)): 2.4 h
Vd (0.2 mg/kg, with pre-treatment of antihistamine (clemastine), read-out: Vz): 36 L
clearance (0.025 to 0.2 mg/kg, read-out: clearance over the dose range): 167 to 483 mL/min
half-life (0.025 to 0.2 mg/kg, read-out: half-life values range): 0.4 to 2.7 h
Vd (read-out: mean volume of distribution (Vz)): 17.1 ± 5.99 L
